Assay results published in ChEMBL document CHEMBL1122982, “Conformational factors in cardiac glycoside activity” (1985).

Species on record: Cavia porcellus
Experiment: Relative […] activity evaluated in guinea pig left atria.
Format: functional

| Compound | Relative ionotropic activity |
| --- | --- |
| C[C@H]1O[C@H]2O[C@@H]3C[C@@H]4CC[C@@H]5[C@H](CC[C@]6(C)[C@@H](C7=CC(=O)OC7)CC[C@]56O)[C@@]4(C)C[C@H]3O[C@@]2(O)[C@@H](O)[C@H]1O | 1 |
| C[C@@H]1C[C@H](O)[C@]2(O)O[C@@H]3C[C@@]4(C)[C@@H](CC[C@@H]5[C@@H]4CC[C@]4(C)[C@@H](C6=CC(=O)OC6)CC[C@]54O)C[C@H]3O[C@@H]2O1 (stereo in doubt; form 2) [Gomphoside] | 0.2 |
| C[C@]12CC[C@H](O)C[C@H]1CC[C@@H]1[C@@H]2CC[C@]2(C)[C@@H](C3=CC(=O)OC3)CC[C@]12O (stereo in doubt; V) [DIGITOXIGENIN] | 1.2 |
| C[C@@H]1O[C@@H](O[C@H]2CC[C@@]3(C)[C@H](CC[C@@H]4[C@@H]3CC[C@]3(C)[C@@H](C5=CC(=O)OC5)CC[C@]43O)C2)[C@H](O)[C@H](O)[C@H]1O (stereo in doubt; X) | 3 |
| C[C@]12CC[C@H](O)C[C@H]1CC[C@@H]1[C@@H]2CC[C@]2(C)[C@@H](C3=CC(=O)OC3)CC[C@]12O (stereo in doubt) [DIGITOXIGENIN] | 1 |
| C[C@@H]1CC(=O)[C@]2(O)O[C@@H]3C[C@@]4(C)[C@@H](CC[C@@H]5[C@@H]4CC[C@]4(C)[C@@H](C6=CC(=O)OC6)CC[C@]54O)C[C@H]3O[C@@H]2O1 [Didehydro Gomphoside] | 2.5 |
| C[C@@H]1O[C@@H](O[C@H]2CC[C@@]3(C)[C@H](CC[C@@H]4[C@@H]3CC[C@]3(C)[C@@H](C5=CC(=O)OC5)CC[C@]43O)C2)[C@H](O)[C@H](O)[C@H]1O (stereo in doubt; form 2) | 9 |
| C[C@@H]1O[C@@H](O[C@H]2CC[C@@]3(C)[C@@H](CC[C@@H]4[C@@H]3CC[C@]3(C)[C@@H](C5=CC(=O)OC5)CC[C@@]43O)C2)C[C@H](O)[C@@H]1O | 15 |
| C[C@@H]1C[C@H](O)[C@]2(O)O[C@@H]3C[C@@]4(C)[C@@H](CC[C@@H]5[C@@H]4CC[C@]4(C)[C@@H](C6=CC(=O)OC6)CC[C@]54O)C[C@H]3O[C@@H]2O1 (stereo in doubt; form 1) [Gomphoside] | 23 |
| C[C@@H]1O[C@@H](O[C@H]2CC[C@@]3(C)[C@H](CC[C@@H]4[C@@H]3CC[C@]3(C)[C@@H](C5=CC(=O)OC5)CC[C@]43O)C2)[C@H](O)[C@H](O)[C@H]1O (stereo in doubt; form 1) | 22 |
